Test results: the NIST ThermoML archive (doi:10.1016/j.jct.2011.10.014)
“And” between values parts separate entries of the source, which are not always exact repeats. Identical values can stand only once.

Assay: molar heat capacity at constant pressure
Conditions: 101.33 kPa, Crystal, Vacuum adiabatic calorimetry

O=C([O-])[O-].[Pb+2] [lead(II) carbonate]
Conditions	molar heat capacity at constant pressure
4.385 K	0.052 J/K/mol
4.419 K	0.0555 J/K/mol
4.738 K	0.06322 J/K/mol
4.754 K	0.06377 J/K/mol
5 K	0.0763 J/K/mol
5.09 K	0.08024 J/K/mol
5.104 K	0.08019 J/K/mol
5.342 K	0.09726 J/K/mol
5.363 K	0.09954 J/K/mol
5.585 K	0.1145 J/K/mol
5.612 K	0.1163 J/K/mol
5.83 K	0.1316 J/K/mol
5.868 K	0.1342 J/K/mol
6.078 K	0.1519 J/K/mol
6.126 K	0.1554 J/K/mol
6.413 K	0.1893 J/K/mol
6.471 K	0.1928 J/K/mol
6.838 K	0.2414 J/K/mol
6.899 K	0.256 J/K/mol
7.267 K	0.3073 J/K/mol
7.34 K	0.322 J/K/mol
7.699 K	0.3863 J/K/mol
7.78 K	0.4013 J/K/mol
8.134 K	0.4809 J/K/mol
8.222 K	0.5005 J/K/mol
8.575 K	0.5882 J/K/mol
8.668 K	0.606 J/K/mol
9.015 K	0.7106 J/K/mol
9.108 K	0.7478 J/K/mol
9.458 K	0.85 J/K/mol
9.558 K	0.8902 J/K/mol
9.903 K	1.01 J/K/mol
10 K	1.048 J/K/mol
10.01 K	1.055 J/K/mol
10.57 K	1.286 J/K/mol
10.68 K	1.33 J/K/mol
11.46 K	1.695 J/K/mol
11.57 K	1.751 J/K/mol
12.36 K	2.155 J/K/mol
12.47 K	2.216 J/K/mol
13.27 K	2.654 J/K/mol
13.38 K	2.746 J/K/mol
14.19 K	3.244 J/K/mol
14.31 K	3.33 J/K/mol
15 K	3.776 J/K/mol
15.13 K	3.866 J/K/mol
15.25 K	3.962 J/K/mol
16.07 K	4.511 J/K/mol
16.2 K	4.595 J/K/mol
17.03 K	5.162 J/K/mol
17.16 K	5.276 J/K/mol
17.99 K	5.902 J/K/mol
18.12 K	6.01 J/K/mol
18.95 K	6.635 J/K/mol
19.09 K	6.747 J/K/mol
19.93 K	7.37 J/K/mol
20 K	7.42 J/K/mol
20.06 K	7.466 J/K/mol
21.41 K	8.521 J/K/mol
21.54 K	8.639 J/K/mol
23.39 K	10.08 J/K/mol
23.53 K	10.19 J/K/mol
25 K	11.38 J/K/mol
25.4 K	11.68 J/K/mol
27.41 K	13.32 J/K/mol
29.43 K	14.96 J/K/mol
30 K	15.38 J/K/mol
31.45 K	16.55 J/K/mol
33.46 K	18.13 J/K/mol
35 K	19.37 J/K/mol
35.48 K	19.73 J/K/mol
36.7 K	20.7 J/K/mol
37.49 K	21.32 J/K/mol
38.5 K	22.12 J/K/mol
40 K	23.28 J/K/mol
40.51 K	23.65 J/K/mol
42.52 K	25.25 J/K/mol
44.53 K	26.66 J/K/mol
45 K	27.01 J/K/mol
46.54 K	28.07 J/K/mol
48.55 K	29.49 J/K/mol
50 K	30.59 J/K/mol
50.55 K	30.94 J/K/mol
52.55 K	32.41 J/K/mol
54.56 K	33.8 J/K/mol
55 K	33.98 J/K/mol
56.56 K	35.05 J/K/mol
58.57 K	36.13 J/K/mol
60 K	37.15 J/K/mol
60.52 K	37.48 J/K/mol
62.4 K	38.61 J/K/mol
64.2 K	39.65 J/K/mol
65 K	40.1 J/K/mol
65.95 K	40.66 J/K/mol
67.63 K	41.57 J/K/mol
69.27 K	42.35 J/K/mol
70 K	42.8 J/K/mol
71.59 K	43.59 J/K/mol
74.62 K	45.09 J/K/mol
75 K	45.29 J/K/mol
77.67 K	46.51 J/K/mol
79.9 K	47.55 J/K/mol
80 K	47.58 J/K/mol
80.72 K	47.85 J/K/mol
83.04 K	48.9 J/K/mol
85 K	49.68 J/K/mol
86.1 K	50.14 J/K/mol
89.18 K	51.33 J/K/mol
90 K	51.61 J/K/mol
92.25 K	52.45 J/K/mol
95 K	53.38 J/K/mol
95.34 K	53.5 J/K/mol
98.43 K	54.49 J/K/mol
100 K	55 J/K/mol
101.53 K	55.5 J/K/mol
104.63 K	56.35 J/K/mol
107.75 K	57.22 J/K/mol
110 K	57.87 J/K/mol
110.87 K	58.11 J/K/mol
114 K	58.89 J/K/mol
117.14 K	59.63 J/K/mol
120 K	60.33 J/K/mol
120.28 K	60.41 J/K/mol
123.43 K	61.11 J/K/mol
126.59 K	61.8 J/K/mol
129.77 K	62.5 J/K/mol
130 K	62.53 J/K/mol
132.94 K	63.15 J/K/mol
136.13 K	63.79 J/K/mol
139.31 K	64.43 J/K/mol
140 K	64.55 J/K/mol
142.51 K	65.03 J/K/mol
145.71 K	65.61 J/K/mol
148.92 K	66.19 J/K/mol
150 K	66.42 J/K/mol
152.13 K	66.84 J/K/mol
155.35 K	67.35 J/K/mol
158.57 K	67.88 J/K/mol
160 K	68.14 J/K/mol
161.81 K	68.4 J/K/mol
165.05 K	68.98 J/K/mol
168.31 K	69.49 J/K/mol
170 K	69.74 J/K/mol
171.58 K	70.05 J/K/mol
174.85 K	70.51 J/K/mol
178.14 K	70.92 J/K/mol
180 K	71.28 J/K/mol
181.44 K	71.38 J/K/mol
184.74 K	71.87 J/K/mol
188.04 K	72.41 J/K/mol
190 K	72.72 J/K/mol
191.34 K	72.91 J/K/mol
194.61 K	73.4 J/K/mol
197.88 K	73.88 J/K/mol
200 K	74.07 J/K/mol
201.13 K	74.3 J/K/mol
204.38 K	74.74 J/K/mol
207.61 K	75.11 J/K/mol
210 K	75.37 J/K/mol
210.84 K	75.52 J/K/mol
214.06 K	75.82 J/K/mol
217.25 K	76.33 J/K/mol
220 K	76.66 J/K/mol
220.45 K	76.69 J/K/mol
223.63 K	77.07 J/K/mol
226.8 K	77.37 J/K/mol
229.94 K	77.92 J/K/mol
230 K	77.94 J/K/mol
233.13 K	78.35 J/K/mol
236.26 K	78.83 J/K/mol
239.37 K	79.24 J/K/mol
240 K	79.27 J/K/mol
242.47 K	79.61 J/K/mol
245.56 K	79.93 J/K/mol
247.36 K	80.25 J/K/mol
247.44 K	80.03 J/K/mol
248.53 K	80.25 J/K/mol
248.62 K	80.46 J/K/mol
249.63 K	80.36 J/K/mol
250 K	80.62 J/K/mol
250.32 K	80.37 J/K/mol
250.72 K	80.4 J/K/mol
251.68 K	80.91 J/K/mol
251.81 K	80.67 J/K/mol
252.9 K	80.66 J/K/mol
253.25 K	80.99 J/K/mol
253.98 K	80.8 J/K/mol
254.73 K	81.2 J/K/mol
255.06 K	81.13 J/K/mol
255.71 K	81.1 J/K/mol
256.15 K	81.11 J/K/mol
256.2 K	81.29 J/K/mol
256.35 K	81.17 J/K/mol
257 K	81.19 J/K/mol
257.23 K	81.2 J/K/mol
257.66 K	81.19 J/K/mol
257.75 K	81.55 J/K/mol
258.31 K	81.42 J/K/mol
258.32 K	81.33 J/K/mol
258.97 K	81.78 J/K/mol
259.12 K	81.62 J/K/mol
259.4 K	81.47 J/K/mol
259.66 K	81.57 J/K/mol
260 K	81.98 J/K/mol
260.33 K	81.49 J/K/mol
260.47 K	81.78 J/K/mol
260.76 K	82.18 J/K/mol
260.93 K	82.3 J/K/mol
261 K	81.89 J/K/mol
261.55 K	81.78 J/K/mol
261.69 K	82.09 J/K/mol
262.03 K	82.18 J/K/mol
262.39 K	82.04 J/K/mol
262.62 K	82.88 J/K/mol
262.63 K	81.92 J/K/mol
263.17 K	81.79 J/K/mol
263.27 K	82.56 J/K/mol
263.7 K	82.23 J/K/mol
263.78 K	82.71 J/K/mol
263.85 K	82.12 J/K/mol
263.9 K	82.69 J/K/mol
264.53 K	82.15 J/K/mol
264.54 K	82.73 J/K/mol
264.79 K	82.47 J/K/mol
264.95 K	82.64 J/K/mol
265.18 K	82.86 J/K/mol
265.2 K	82.17 J/K/mol
265.82 K	82.91 J/K/mol
265.86 K	82.45 J/K/mol
265.88 K	82.3 J/K/mol
266.47 K	83.02 J/K/mol
266.56 K	82.66 J/K/mol
266.78 K	83.22 J/K/mol
266.94 K	82.58 J/K/mol
267.12 K	83.34 J/K/mol
267.27 K	82.4 J/K/mol
267.77 K	83.48 J/K/mol
267.85 K	83 J/K/mol
267.95 K	82.62 J/K/mol
268.01 K	82.76 J/K/mol
268.42 K	83.69 J/K/mol
268.63 K	82.71 J/K/mol
269.07 K	83.96 J/K/mol and 83 J/K/mol
269.31 K	82.9 J/K/mol
269.73 K	83.98 J/K/mol
269.75 K	84.22 J/K/mol
269.99 K	83.23 J/K/mol
270 K	83.33 J/K/mol
270.14 K	83.5 J/K/mol
270.38 K	84.12 J/K/mol
270.68 K	83.45 J/K/mol
270.74 K	83.86 J/K/mol
271.04 K	84.03 J/K/mol
271.2 K	83.78 J/K/mol
271.36 K	84.03 J/K/mol
271.7 K	84.69 J/K/mol
272.07 K	84.59 J/K/mol
272.26 K	84.68 J/K/mol
272.43 K	85.87 J/K/mol
272.67 K	88.34 J/K/mol
272.77 K	85.64 J/K/mol
273.1 K	94.33 J/K/mol
273.15 K	83.77 J/K/mol
273.3 K	90.01 J/K/mol
273.43 K	87.85 J/K/mol
273.58 K	87.5 J/K/mol
273.76 K	86.34 J/K/mol
274.21 K	85.21 J/K/mol
274.36 K	85.11 J/K/mol
274.43 K	85.57 J/K/mol
274.92 K	84.78 J/K/mol
275.09 K	85.53 J/K/mol
275.43 K	85.37 J/K/mol
275.61 K	85.08 J/K/mol
275.62 K	85.95 J/K/mol
275.76 K	86.02 J/K/mol
276.3 K	85.69 J/K/mol
276.44 K	86.06 J/K/mol
276.47 K	85.96 J/K/mol
276.49 K	86.54 J/K/mol
276.98 K	85.66 J/K/mol
277.13 K	85.86 J/K/mol
277.55 K	87.21 J/K/mol
277.67 K	85.56 J/K/mol
277.8 K	86.13 J/K/mol
278.35 K	85.61 J/K/mol
278.49 K	85.51 J/K/mol
278.57 K	85.33 J/K/mol
278.64 K	85.79 J/K/mol
279.04 K	84.8 J/K/mol
279.16 K	84.95 J/K/mol
279.34 K	85.02 J/K/mol
279.74 K	85.51 J/K/mol and 84.58 J/K/mol
279.84 K	84.46 J/K/mol
280 K	84.69 J/K/mol
280.48 K	84.25 J/K/mol
280.51 K	84.4 J/K/mol
280.87 K	84.45 J/K/mol
281.17 K	84.41 J/K/mol
281.18 K	84.61 J/K/mol
281.61 K	84.92 J/K/mol
281.86 K	84.62 J/K/mol
281.87 K	84.51 J/K/mol
282.22 K	84.71 J/K/mol
282.54 K	84.79 J/K/mol
283.3 K	84.95 J/K/mol
283.98 K	85.16 J/K/mol
284.55 K	85.29 J/K/mol
284.68 K	85.43 J/K/mol
285.39 K	85.19 J/K/mol
286.07 K	85.27 J/K/mol
286.75 K	85.41 J/K/mol
287.43 K	85.38 J/K/mol
287.49 K	85.63 J/K/mol
288.12 K	85.33 J/K/mol
288.8 K	85.51 J/K/mol
289.49 K	85.71 J/K/mol
290 K	86.01 J/K/mol
290.41 K	86 J/K/mol
293.33 K	86.4 J/K/mol
296.23 K	86.78 J/K/mol
298.15 K	87.07 J/K/mol
299.12 K	87.18 J/K/mol
300 K	87.3 J/K/mol
302 K	87.59 J/K/mol
304.88 K	87.95 J/K/mol
307.76 K	88.29 J/K/mol
310 K	88.56 J/K/mol
310.62 K	88.63 J/K/mol
313.49 K	89 J/K/mol
316.35 K	89.34 J/K/mol
320 K	89.76 J/K/mol
